Reference: patent US20170119020A1, “METHOD OF FEEDING AN ANIMAL” (CARGILL, INCORPORATED, priority 2014, published 2017)

Assays:
[1] = tested on: egg yolk of Ross 308 breeders; assay: Egg yolk ORAC and vitamin E analysis (Example 4); format: in vivo, chicken
Description: Eggs were shipped to University Gent, Belgium, for ORAC and vitamin E analysis on the yolk. The method used for the determination of polyphenols was the Folin-Ciocalteu Methodology which is described in the European Pharmacopoeia, using a spectrophotometry UV-visible. For the ORAC analysis the method was used as described by Ou et al. “Development and validation of an improved oxygen radical absorbance capacity assay using fluorescein as the fluorescent probe,” Journal of Agricultural and Food Chemistry 49: 4619-4626, (2001) and Huang et al. “High-throughput assay of oxygen radical absorbance capacity (ORAC) using a multichannel liquid handling system coupled with a microplate fluorescence reader in 96-well format,” Journal of Agricultural and Food Chemistry 50: 4437-4444, (2002).

[2] = tested on: Cobb 500FF breeder chickens; assay: Broiler breeder performance, partial replacement of vitamin E by PROVIOX 50 (Example 1); format: in vivo, chicken
Protocol: Two different breeder diets (Table 1) were tested in a randomized block design. Breeders received a standard control diet or a diet where 50% of the vitamin E was replaced by PROVIOX 50. The two diets were randomly distributed into six cages, resulting in three replicates per treatment with 28, 29, or 30 females and […] per replicate.
The experimental period lasted four weeks; the breeders received a lay start diet during the entire period according to the experimental design. Feed and water were restricted. Feed amount depended on body weight development. Water was provided for two hours a day, crops were checked regularly to ensure the correct amount of water was provided.
A total of 24 male and 173 female Cobb 500FF 20-week-breeder chickens were procured. The males and females were randomly assigned to six floor pens (four males per pen, 29 females in pens 1-3, 30 females in pen 4, and 28 females in pens 5 and 6). During the pre-trial period, all breeders received the control diet.
Throughout the trial, breeders were housed in broiler breeder floor pens ([…]) on litter (flax). Each pen was equipped with two bell drinkers adjustable in height. The feed for the females was supplied via two feeder bowls on the raised slatted floor. The feed for the males was supplied via a feeder trough on the other side of the pen.
Day length was set at 14 hours a day until peak production was reached (70%; day 15). After peak production was achieved, day length was set to 15 hours a day. Temperature and ventilation were computer controlled. The temperature was set at 20° C. for the entire experimental period.
Individual bird weights were recorded weekly from the start of the experiment. Feed amount provided was recorded on a daily basis. Egg production and egg quality data were recorded on a daily basis. Laying % was calculated as number of eggs produced per pen divided by the number of bird days of the experimental period. Egg mass production per pen per week was calculated as laying % (including second-class eggs) times average egg weight of the pen. Average egg weight was determined per pen once a week. Second-class eggs were divided into dirty eggs, broken eggs, shell-less eggs, double-yolk eggs, floor eggs and remaining second-class eggs. Mortality was checked every day; dead animals were not replaced during the experimental period.

sows and piglets = assay: Content of vitamins E and A in serum of sows and piglets, HPLC (Example 10); format: in vivo, pig; conditions: for Vitamin A in serum of piglets / Vitamin E in serum of piglets: piglets at 21 days
Description: The performance following criteria were monitored during the trial: (i) Sows response criteria (actual parity, farrowing rate, culled sows—number and reasons, wean-to-mating interval, farrowing rate in the next cycle); (ii) litter response criteria (number of piglets, total, alive, stillborn, mummies; weight of piglets and litters; survival). The following biochemical (blood) criteria were monitored during the trial for the sows (mating, farrowing and weaning), piglets 21st day: (i) glutathione peroxidase (GPx) activity; (ii) superoxide dismutase (SOD) activity; (iii) total antioxidant status (TAS); (iv) vitamin E content; (v) vitamin A content.
To determine the oxidative status, the blood samples were collected from sows and piglets into tubes with lithium anticoagulant—received whole blood for analysis. At the same time blood samples were taken for blood clot. They were centrifuged (1500 rpm, 15 Temp. 4° C.) and obtained serum was pipetted into separate tubes.
The content of the TAS (total antioxidant status) were determined using the Antioxidant assay kit (Cat. No CS0790), the activity of SOD (superoxide dismutase) was determined using SOD determination kit 19160, the activity of GPx (glutathione Peroxide assai Cellular Activity Kit) Cat. No CGP1. The content of vitamins A and E by McMurray and Blanchflower 1979 (Journal of Chromatography 178, 525-531.). TAS
Serum samples (1 ml) was deproteinized with anhydrous ethanol (1 ml), extracted with 5 ml of n-hexane (Vortex 5′), then centrifuged (3000 rpm, 10′, temp. 4° C.). The resulting 4 ml of the supernatant were evaporated to dryness under nitrogen, and then dissolved in 1 ml of 96% ethanol and analyzed by high performance liquid chromatography (HPLC).
The contents of retinol and tocopherol was determined by reversed-phase high performance liquid chromatography (HPLC) with chromatograph SHIMADZU. Nucleosil C18 column is used, the carrier phase was methanol-water (95:5, v: v). The measurement was performed using a UV detector at a wavelength of 326 nm to determine the amount of retinol and a fluorescence detector (excitation wavelength—295 nm, emission wavelength—330 nM) to determine the tocopherol content. The concentration of retinol and tocopherol were calculated on the basis of the peak external standards (Sigma-Aldrich (□)-a-Tocopherol, Retinol Vitamin-A-alcohol).

Ross 308 male broilers = assay: Grow out of offspring (Example 6); format: in vivo, chicken; conditions: 160 versus 80 ppm in breeder diet
[3] = breeders 26 through 30 weeks of age
[4] = Breeding, Group 2: vitamin E 50/75 mg/kg diet
[5] = Breeding, Group 3: vitamin E 100/150 mg/kg diet
[6] = Farrowing, Group 2: vitamin E 50/75 mg/kg diet
[7] = Farrowing, Group 3: vitamin E 100/150 mg/kg diet
[8] = Weaning, Group 2: vitamin E 50/75 mg/kg diet
[9] = Weaning, Group 3: vitamin E 100/150 mg/kg diet
[10] = Group 2: vitamin E 50/75 mg/kg sow diet
[11] = Group 3: vitamin E 100/150 mg/kg sow diet

In the case of `Cc1c(C)c2c(c(C)c1O)CCC(C)(CCCC(C)CCCC(C)CCCC(C)C)O2` (racemic) [Vitamin E, DL-α-tocopherol], the “proportionality index for transfer of vitamin E from the diet to the egg” value ([1]; in vivo) is reported as “around 50%”, the “ORAC of egg yolk” value ([1]; vitamin E equivalence 80 ppm) is reported as 33.8 µmol TE/g and the “Vitamin E of egg yolk” value ([1]; vitamin E equivalence 80 ppm) is reported as 139.7 µg […]tocoferol/g. For the same molecule, the “ORAC of egg yolk” value ([1]; vitamin E equivalence 160 ppm) was 33.5 µmol TE/g, the “Vitamin E of egg yolk” value ([1]; vitamin E equivalence 160 ppm) was 231.6 µg […]tocoferol/g and the “Egg Mass” value [2, 3] was 47.1 g/hen/day. The “Egg Weight” value [2, 3] was 56.4 g, the “First Class Eggs” value [2, 3] was 77.9% and the “Second Choice Eggs: Broken Eggs” value [2, 3] was 1.6%. For the same molecule, the “Second Choice Eggs: Dirty Eggs” value [2, 3] was 0.7%, the “Second Choice Eggs: Double Yolk Eggs” value [2, 3] was 1.3% and the “Second Choice Eggs: Floor Eggs” value [2, 3] was 1.4%. For the same molecule, the “Second Choice Eggs: Remainder” value [2, 3] was 0.5%, the “Second Choice Eggs: Shell Less Eggs” value [2, 3] was 0.1% and the “Laying Percentage” value ([2]; breeders 26 through 30 weeks of age, half of vitamin E replaced by PROVIOX 50) was 83.6%. The “BW 30 wk Females” value ([2]; in vivo) was 3.68 kg, the “BW 30 wk Males” value ([2]; in vivo) was 4.19 kg and the “BW 26 wk Females” value ([2]; start of experiment) was 3.50 kg. For the same molecule, the “BW 26 wk Males” value ([2]; start of experiment) was 3.91 kg, the Content of Vitamin A in the serum of sows (sows and piglets; [4]) was 0.15 µg/mL and the Content of Vitamin E in the serum of sows (sows and piglets; [4]) was 1.09 µg/mL. For the same molecule, the Content of Vitamin A in the serum of sows (sows and piglets; [5]) was 0.16 µg/mL, the Content of Vitamin E in the serum of sows (sows and piglets; [5]) was 1.11 µg/mL and the Content of Vitamin A in the serum of sows (sows and piglets; [6]) was 0.11 µg/mL. For the same molecule, the Content of Vitamin E in the serum of sows (sows and piglets; [6]) was 0.74 µg/mL, the Content of Vitamin A in the serum of sows (sows and piglets; [7]) was 0.15 µg/mL and the Content of Vitamin E in the serum of sows (sows and piglets; [7]) was 1.16 µg/mL. The “piglet serum a-tocopherol concentrations, lactation sows fed 150 mg/kg versus 75 mg/kg vitamin E” value (sows and piglets; P<0.001) was “higher”, the Content of Vitamin A in the serum of sows (sows and piglets; [8]) was 0.15 µg/mL and the Content of Vitamin E in the serum of sows (sows and piglets; [8]) was 1.02 µg/mL. For the same molecule, the Content of Vitamin A in the serum of sows (sows and piglets; [9]) was 0.15 µg/mL, the Content of Vitamin E in the serum of sows (sows and piglets; [9]) was 1.13 µg/mL and the “sow serum a-tocopherol (vitamin E) concentrations when vitamin E was added to the sow diets” value (sows and piglets; gestation and lactation, P<0.001) was “higher”. It also gave a Vitamin A in serum of piglets (sows and piglets; [10]) of 0.16 µg/mL, a Vitamin E in serum of piglets (sows and piglets; [10]) of 1.41 µg/mL and a Vitamin A in serum of piglets (sows and piglets; [11]) of 0.2 µg/mL. The Vitamin E in serum of piglets (sows and piglets; [11]) was 1.61 µg/mL, the “feed to gain corrected for final bodyweight, worse for high versus low vitamin E treatment” value (Ross 308 male broilers) was 2.6% and the “overall feed to gain, worse for high versus low vitamin E treatment” value (Ross 308 male broilers) was 1.4%.
